Data reported in patent US5202315A, “Cephalosporin compounds” (Lucky, Ltd., priority 1989, dated 1993).
In brackets after ≈: the same amount, converted by molar mass.

Columns and labels:
Test in all cases: Antibacterial activity, MIC
Format in all cases: cell-based
[1] = system: Acinetobacter calcoaceticus ATCC 15473; conditions: ATCC15473, ATCC 15473, agar two-fold dilution, 37° C., 20 hours, read-out: MIC
Protocol: (§1) Also, the in vitro antibacterial activity was determined by the by a two-fold dilution method as described below:
(§2) That is, the two-fold serial dilutions of the compound were made dispersed in Muller-Hinton agar medium. 2 μl of standard test strain which had the 10^7 CFU per ml was inoculated on the medium, and was incubated at 37° C. for 20 hours.

[2] = system: Bacillus cereus ATCC 11778; conditions: ATCC11778, ATCC 11778, agar two-fold dilution, 37° C., 20 hours, read-out: MIC
Protocol: as §1, §2

[3] = system: Bacillus megaterium ATCC 9885; conditions: Priestia megaterium, ATCC9885; ATCC 9885; agar two-fold dilution, 37° C., 20 hours; read-out: MIC
Protocol: as §1, §2

[4] = system: Citrobacter freundii ATCC 8090; conditions: ATCC8090, ATCC 8090, agar two-fold dilution, 37° C., 20 hours, read-out: MIC
Protocol: as §1, §2

[5] = system: Enterobacter aerogenes ATCC 29751; conditions: Klebsiella aerogenes, ATCC29751; ATCC 29751; agar two-fold dilution, 37° C., 20 hours; read-out: MIC
Protocol: as §1, §2

[6] = system: Enterobacter cloacae ATCC 27508; conditions: ATCC27508, ATCC 27508, agar two-fold dilution, 37° C., 20 hours, read-out: MIC
Protocol: as §1, §2

[7] = system: Escherichia coli ATCC 10536; conditions: ATCC10536, agar two-fold dilution, 37° C., 20 hours
Protocol: as §1, §2

[8] = system: Escherichia coli ATCC 25922; conditions: ATCC25922, agar two-fold dilution, 37° C., 20 hours
Protocol: as §1, §2

[9] = system: Klebsiella pneumoniae ATCC 10031; conditions: ATCC10031, ATCC 10031, agar two-fold dilution, 37° C., 20 hours, read-out: MIC
Protocol: as §1, §2

[10] = system: Micrococcus luteus ATCC 9341; conditions: ATCC9341, ATCC 9341, agar two-fold dilution, 37° C., 20 hours, read-out: MIC
Protocol: as §1, §2

[11] = system: Morganella morganii ATCC 8076h; conditions: ATCC8076H, agar two-fold dilution, 37° C., 20 hours
Protocol: as §1, §2

[12] = system: Proteus mirabilis ATCC 25933; conditions: ATCC25933, ATCC 25933, agar two-fold dilution, 37° C., 20 hours, read-out: MIC
Protocol: as §1, §2

[13] = system: Proteus vulgaris ATCC 6059; conditions: ATCC6059, ATCC 6059, agar two-fold dilution, 37° C., 20 hours, read-out: MIC
Protocol: as §1, §2

[14] = system: Providencia rettgeri ATCC 9250; conditions: ATCC9250, agar two-fold dilution, 37° C., 20 hours
Protocol: as §1, §2

[15] = system: Pseudomonas aeruginosa ATCC 10145; conditions: ATCC10145, ATCC 10145, agar two-fold dilution, 37° C., 20 hours, read-out: MIC
Protocol: as §1, §2

[16] = system: Pseudomonas aeruginosa ATCC 25619; conditions: ATCC25619, ATCC 25619, agar two-fold dilution, 37° C., 20 hours, read-out: MIC
Protocol: as §1, §2

[17] = system: Pseudomonas aeruginosa ATCC 27853; conditions: ATCC27853, ATCC 27853, agar two-fold dilution, 37° C., 20 hours, read-out: MIC
Protocol: as §1, §2

[18] = system: Salmonella typhimurium ATCC 14028; conditions: Salmonella enterica; ATCC 14028; agar two-fold dilution, 37° C., 20 hours; read-out: MIC
Protocol: as §1, §2

[19] = system: Serratia marcescens ATCC 27117; conditions: ATCC27117, ATCC 27117, agar two-fold dilution, 37° C., 20 hours, read-out: MIC
Protocol: as §1, §2

[20] = system: Shigella flexneri ATCC 11836; conditions: ATCC11836, agar two-fold dilution, 37° C., 20 hours
Protocol: as §1, §2

[21] = system: Shigella sonnei ATCC 11060; conditions: ATCC11060, ATCC 11060, agar two-fold dilution, 37° C., 20 hours, read-out: MIC
Protocol: as §1, §2

[22] = system: Staphylococcus aureus ATCC 10537; conditions: ATCC10537, ATCC 10537, agar two-fold dilution, 37° C., 20 hours, read-out: MIC
Protocol: as §1, §2

[23] = system: Staphylococcus aureus ATCC 6538p; conditions: ATCC6538P, ATCC 6538p, agar two-fold dilution, 37° C., 20 hours, read-out: MIC
Protocol: as §1, §2

[24] = system: Staphylococcus epidermidis ATCC 12228; conditions: ATCC12228, ATCC 12228, agar two-fold dilution, 37° C., 20 hours, read-out: MIC
Protocol: as §1, §2

[25] = system: Streptococcus faecalis ATCC 29212; conditions: Enterococcus faecalis, ATCC29212; ATCC 29212; agar two-fold dilution, 37° C., 20 hours; read-out: MIC
Protocol: as §1, §2

SMILES | MIC [1] [µg/mL] | MIC [2] [µg/mL] | MIC [3] [µg/mL] | MIC [4] [µg/mL] | MIC [5] [µg/mL] | MIC [6] [µg/mL] | MIC [7] [µg/mL] | MIC [8] [µg/mL] | MIC [9] [µg/mL] | MIC [10] [µg/mL] | MIC [11] [µg/mL] | MIC [12] [µg/mL] | MIC [13] [µg/mL] | MIC [14] [µg/mL] | MIC [15] [µg/mL] | MIC [16] [µg/mL] | MIC [17] [µg/mL] | MIC [18] [µg/mL] | MIC [19] [µg/mL] | MIC [20] [µg/mL] | further results
CCO/N=C(\C(=O)NC1C(=O)N2C(C(=O)[O-])=C(CSc3nc(N)cc(N)[n+]3CC)CSC12)c1nsc(N)n1 (centres unmarked) [Compound I-21] | 4 (≈ 6.89 µM) | 16 (≈ 27.6 µM) | 0.13 (≈ 0.224 µM) | 0.13 (≈ 0.224 µM) | 0.5 (≈ 0.861 µM) | 0.016 (≈ 0.0276 µM) | 0.13 (≈ 0.224 µM) | 0.13 (≈ 0.224 µM) | 0.016 (≈ 0.0276 µM) | 0.016 (≈ 0.0276 µM) | 0.016 (≈ 0.0276 µM) | 1 (≈ 1.72 µM) | 1 (≈ 1.72 µM) | ≤ 0.008 | 4 (≈ 6.89 µM) | 1 (≈ 1.72 µM) | 2 (≈ 3.44 µM) | 0.5 (≈ 0.861 µM) | 0.25 (≈ 0.431 µM) | 0.063 (≈ 0.108 µM) | MIC [21]: 0.25 µg/mL (≈ 0.431 µM); MIC [22]: 0.25 µg/mL (≈ 0.431 µM); MIC [23]: 0.5 µg/mL (≈ 0.861 µM); MIC [24]: 0.13 µg/mL (≈ 0.224 µM); MIC [25]: 16 µg/mL (≈ 27.6 µM)
CCC[n+]1c(N)cc(N)nc1SCC1=C(C(=O)[O-])N2C(=O)C(NC(=O)/C(=N\OCC)c3nsc(N)n3)C2SC1 (centres unmarked) [Compound I-22] | 4 (≈ 6.73 µM) | 16 (≈ 26.9 µM) | 0.13 (≈ 0.219 µM) | 0.25 (≈ 0.42 µM) | 1 (≈ 1.68 µM) | 0.031 (≈ 0.0521 µM) | 0.25 (≈ 0.42 µM) | 0.25 (≈ 0.42 µM) | 0.016 (≈ 0.0269 µM) | 0.016 (≈ 0.0269 µM) | 0.031 (≈ 0.0521 µM) | 2 (≈ 3.36 µM) | 2 (≈ 3.36 µM) | ≤ 0.008 | 16 (≈ 26.9 µM) | 1 (≈ 1.68 µM) | 4 (≈ 6.73 µM) | 2 (≈ 3.36 µM) | 0.5 (≈ 0.841 µM) | 0.13 (≈ 0.219 µM) | MIC [21]: 0.5 µg/mL (≈ 0.841 µM); MIC [22]: 0.5 µg/mL (≈ 0.841 µM); MIC [23]: 0.5 µg/mL (≈ 0.841 µM); MIC [24]: 0.25 µg/mL (≈ 0.42 µM); MIC [25]: 16 µg/mL (≈ 26.9 µM)
C=CC[n+]1c(N)cc(N)nc1SCC1=C(C(=O)[O-])N2C(=O)C(NC(=O)/C(=N\OCC)c3nsc(N)n3)C2SC1 (centres unmarked) [Compound I-23] | 8 (≈ 13.5 µM) | 16 (≈ 27 µM) | 0.25 (≈ 0.422 µM) | 0.25 (≈ 0.422 µM) | 2 (≈ 3.37 µM) | 0.031 (≈ 0.0523 µM) | 0.5 (≈ 0.844 µM) | 0.25 (≈ 0.422 µM) | 0.031 (≈ 0.0523 µM) | 0.016 (≈ 0.027 µM) | 0.031 (≈ 0.0523 µM) | 2 (≈ 3.37 µM) | 1 (≈ 1.69 µM) | ≤ 0.008 | 16 (≈ 27 µM) | 2 (≈ 3.37 µM) | 8 (≈ 13.5 µM) | 2 (≈ 3.37 µM) | 1 (≈ 1.69 µM) | 0.13 (≈ 0.219 µM) | MIC [21]: 0.5 µg/mL (≈ 0.844 µM); MIC [22]: 1 µg/mL (≈ 1.69 µM); MIC [23]: 1 µg/mL (≈ 1.69 µM); MIC [24]: 0.25 µg/mL (≈ 0.422 µM); MIC [25]: 32 µg/mL (≈ 54 µM)
CO/N=C(\C(=O)NC1C(=O)N2C(C(=O)[O-])=C(CSc3nc(N)cc(N)[n+]3C)CSC12)c1nsc(N)n1 (centres unmarked) [Compound I-24] | 2 (≈ 3.62 µM) | 32 (≈ 57.9 µM) | 0.25 (≈ 0.452 µM) | 0.13 (≈ 0.235 µM) | 1 (≈ 1.81 µM) | 0.063 (≈ 0.114 µM) | 0.13 (≈ 0.235 µM) | 0.13 (≈ 0.235 µM) | 0.031 (≈ 0.0561 µM) | 0.13 (≈ 0.235 µM) | 0.063 (≈ 0.114 µM) | 1 (≈ 1.81 µM) | 1 (≈ 1.81 µM) | 0.016 (≈ 0.029 µM) | 16 (≈ 29 µM) | 4 (≈ 7.24 µM) | 4 (≈ 7.24 µM) | 0.5 (≈ 0.905 µM) | 0.25 (≈ 0.452 µM) | 0.031 (≈ 0.0561 µM) | MIC [21]: 0.13 µg/mL (≈ 0.235 µM); MIC [22]: 0.5 µg/mL (≈ 0.905 µM); MIC [23]: 0.5 µg/mL (≈ 0.905 µM); MIC [24]: 0.25 µg/mL (≈ 0.452 µM); MIC [25]: 32 µg/mL (≈ 57.9 µM)
CC[n+]1c(N)cc(N)nc1SCC1=C(C(=O)[O-])N2C(=O)C(NC(=O)/C(=N\OC)c3nsc(N)n3)C2SC1 (centres unmarked) [Compound I-25] | 2 (≈ 3.53 µM) | 32 (≈ 56.5 µM) | 0.13 (≈ 0.229 µM) | 0.13 (≈ 0.229 µM) | 1 (≈ 1.76 µM) | 0.031 (≈ 0.0547 µM) | 0.13 (≈ 0.229 µM) | 0.13 (≈ 0.229 µM) | 0.031 (≈ 0.0547 µM) | 0.031 (≈ 0.0547 µM) | 0.031 (≈ 0.0547 µM) | 1 (≈ 1.76 µM) | 1 (≈ 1.76 µM) | 0.016 (≈ 0.0282 µM) | 16 (≈ 28.2 µM) | 4 (≈ 7.06 µM) | 4 (≈ 7.06 µM) | 0.25 (≈ 0.441 µM) | 0.25 (≈ 0.441 µM) | 0.031 (≈ 0.0547 µM) | MIC [21]: 0.13 µg/mL (≈ 0.229 µM); MIC [22]: 0.5 µg/mL (≈ 0.882 µM); MIC [23]: 0.5 µg/mL (≈ 0.882 µM); MIC [24]: 0.13 µg/mL (≈ 0.229 µM); MIC [25]: 32 µg/mL (≈ 56.5 µM)
